Converted amounts (≈) assume the structure as drawn. Like-named read-outs stand apart in the source and are kept apart here.
Legend:
HRV type 2 = test: Inhibition of viral cytopathic effect (CPE), HRV type 2 in KB cells; type: cell-based, human rhinovirus; settings: for EC50: Enterovirus, read-out: Activity on Rhinovirus Type 2 EC50
Experimental: (§5) The ability of compounds to suppress virus replication and thereby protect cells from HRV-induced CPE was measured using human embryo lung (MRC-5) and human epidermoid carcinoma of the mouth (KB) cells infected with HRV type 1A and HRV type 2, respectively. […] Test compounds were dissolved in 100% anhydrous dimethyl sulfoxide and serially diluted in tissue culture medium. The antiviral potency of the test compounds was assessed by exposing replicate tissue culture wells to a selected dilution series of between 6 and 7 compound concentrations in the presence of sufficient test virus to invoke significant CPE over the course of the assay. Control cells were also exposed to identical concentrations of compounds in the absence of virus or were infected with virus under the same conditions but in the absence of compounds. Compounds of established anti-HRV efficacy (enviroxime, ribavirin and pirodavir) were assayed by identical procedures in parallel to the test compounds. Tissue culture media were identically supplemented to maintain cell viability and support viral growth while suppressing bacterial growth over the period of the assay (supplements: 2% fetal calf serum, 0.01% sodium bicarbonate, 50 g/ml gentamicin, 5 M magnesium chloride, 10 mM of zinc chloride). […] At this time all infected cultures were examined by eye using a light microscope and CPE scored on a scale of 0 (no CPE) to 4 (maximum CPE). Uninfected treated cultures were similarly scored for cytotoxic effects (eg. cell enlargement, granularity, rounding, detachment). […] As an alternative to a CC50 value, cytoxicity in some cases was expressed as the Minimum Toxic Concentration (MTC).
(§6) Vital dye staining to measure cell viability was also used to quantify CPE and cytotoxic effects. […] After the assay had been scored by eye with the aid of a microscope, 100 1 of neutral red (NR) solution (0.34% NR in phosphate buffered saline (PBS)) was added to each well and mixed gently. The assays were returned to the 37° C. incubator for 2 hours to facilitate uptake of the NR by viable cells. The medium/NR mixture was then aspirated from the surface of the cells, which were washed twice with PBS. 0.25 ml of absolute ethanol containing Sorensen's citrate buffer I, was added with gentle mixing and the assays incubated at room temperature in the dark for 30 minutes to dissolve the NR. NR staining of viable cells was then quantified spectrophotometrically by measuring the colour density of the NR solution using a BioTek EL-309 microplate reader at dual wavelengths of 540 and 405 nm. The differences in the two readings were automatically determined to eliminate background errors. EC50 and CC50 values were determined by regression analysis matching compound concentration to NR staining. The XTT method involved use of a solution of XTT (1 mg/ml in culture media) which was added to each well and the plates incubated at 37° C. for 4 hours. XTT metabolism was measured spectrophotometrically using a similar method to that described above except that the dual wavelengths were 450 nm and 650 nm. EC50 and CC50 values were determined by regression analysis using a similar method to that described above.

[1] = Cytotoxicity in uninfected treated cultures (HRV type 1A assay); type: cell-based, human; settings: human
Experimental: as §5, §6

HRV type 1A = test: Inhibition of viral cytopathic effect (CPE), HRV type 1A in MRC-5 cells; type: cell-based, human rhinovirus; settings: for EC50: Enterovirus
Experimental: as §5, §6

Coxsackie A21 = test: Activity against Coxsackie A21 in mammalian cell culture assay; type: cell-based
Experimental: (§1) Activity against Enteroviruses in Mammalian Cell Culture Assays Compounds 50 and 56 of the Invention were Tested Against Other Picornaviruses Using Similar cell based assays to those described in example 30 above and the results are shown in Table 6 below: […]

Enterovirus 70 = test: Activity against Enterovirus 70 in mammalian cell culture assay; type: cell-based
Experimental: as §1

mammalian cell culture [2] = test: in vitro; type: cell-based
Experimental: as §1

Echo 21 = test: Activity against Echo 21 in mammalian cell culture assay; type: cell-based
Experimental: as §1

mammalian cell culture [3] = type: cell-based
Experimental: as §1

[4] = system: human embryo lung (MRC-5) cells; test: Cytotoxicity in uninfected treated cultures (HRV type 1A assay); type: cell-based
Experimental: as §5, §6

[5] = system: human epidermoid carcinoma of the mouth (KB) cells; test: Cytotoxicity in uninfected treated cultures (HRV type 2 assay)
Experimental: (§2) The ability of compounds to suppress virus replication and thereby protect cells from HRV-induced CPE was measured using human embryo lung (MRC-5) and human epidermoid carcinoma of the mouth (KB) cells infected with HRV type 1A and HRV type 2, respectively. Cells grown in 96 well tissue culture plates using conventional mammalian tissue culture medium (such as minimum essential medium) supplemented with fetal calf serum were used in an assay essentially similar to that described by Sidwell and Huffman (Applied Microbiology, 22, 797-801 (1971)). Test compounds were dissolved in 100% anhydrous dimethyl sulfoxide and serially diluted in tissue culture medium. The antiviral potency of the test compounds was assessed by exposing replicate tissue culture wells to a selected dilution series of between 6 and 7 compound concentrations in the presence of sufficient test virus to invoke significant CPE over the course of the assay. Control cells were also exposed to identical concentrations of compounds in the absence of virus or were infected with virus under the same conditions but in the absence of compounds. Compounds of established anti-HRV efficacy (enviroxime, ribavirin and pirodavir) were assayed by identical procedures in parallel to the test compounds. Tissue culture media were identically supplemented to maintain cell viability and support viral growth while suppressing bacterial growth over the period of the assay (supplements: 2% fetal calf serum, 0.01% sodium bicarbonate, […] gentamicin, […] magnesium chloride, […] of zinc chloride). […] At this time all infected cultures were examined by eye using a light microscope and CPE scored on a scale of 0 (no CPE) to 4 (maximum CPE). Uninfected treated cultures were similarly scored for cytotoxic effects (eg. cell enlargement, granularity, rounding, detachment). […] As an alternative to a CC50 value, cytoxicity in some cases was expressed as the Minimum Toxic Concentration (MTC).
(§3) Vital dye staining to measure cell viability was also used to quantify CPE and cytotoxic effects. The vital dye technique was based on either neutral red uptake (Modification of the method of McManus, Appl. Environment. Microbiol., 31, 35-38, 1976) or XXT metabolism. After the assay had been scored by eye with the aid of a microscope, 100 1 of neutral red (NR) solution (0.34% NR in phosphate buffered saline (PBS)) was added to each well and mixed gently. The assays were returned to the 37° C. incubator for 2 hours to facilitate uptake of the NR by viable cells. The medium/NR mixture was then aspirated from the surface of the cells, which were washed twice with PBS. 0.25 ml of absolute ethanol containing Sorensen's citrate buffer I, was added with gentle mixing and the assays incubated at room temperature in the dark for 30 minutes to dissolve the NR. NR staining of viable cells was then quantified spectrophotometrically by measuring the colour density of the NR solution using a BioTek EL-309 microplate reader at dual wavelengths of 540 and 405 nm. The differences in the two readings were automatically determined to eliminate background errors. EC50 and CC50 values were determined by regression analysis matching compound concentration to NR staining. The XTT method involved use of a solution of XTT (1 mg/ml in culture media) which was added to each well and the plates incubated at 37° C. for 4 hours. XTT metabolism was measured spectrophotometrically using a similar method to that described above except that the dual wavelengths were 450 nm and 650 nm. EC50 and CC50 values were determined by regression analysis using a similar method to that described above.
(§4) Selectivity indices (SI) are the CC50 or MTC divided by the EC50.

[6] = as above; settings: human
Experimental: as §2, §3, §4

in vitro = type: cell-based
Experimental: as §1

[7] = HRV type 2, KB cells, concentration yielding 50% antiviral efficacy
[8] = MRC5, HRV type 1A, MRC-5 cells, concentration yielding 50% antiviral efficacy, read-out: Activity on Rhinovirus Type 1A EC50
[9] = HRV type 1A, MRC-5 cells, concentration yielding 50% antiviral efficacy
[10] = MRC5, read-out: Activity on Rhinovirus Type 1A EC50
[11] = Enterovirus D; read-out: Activity on Enterovirus 70 EC50

Row | Activity on Rhinovirus Type 2 EC50 (HRV type 2; [7]) | SMILES | CC50 [1] | Activity on Rhinovirus Type 1A CC50 [4] | Activity on Rhinovirus Type 2 CC50 [5] | Activity on Rhinovirus Type 1A EC50 (HRV type 1A; [9]) | further results
1 |  | CCOC(=O)c1ccc(OCCC2CCN(c3ccc(C)nn3)CC2)cc1 [Pirodavir, reference compound] | > 10 µg/mL |  |  |  | EC50 (HRV type 2; [7]): 0.003 µg/mL (≈ 0.00812 µM); EC50 (HRV type 1A; [8]): 0.02 µg/mL (≈ 0.0541 µM)
2 | 0.02 µg/mL | Cc1cc(-c2noc(C(F)(F)F)n2)cc(C)c1OCCCc1cc(COCCOCCOCc2cc(CCCOc3c(C)cc(-c4noc(C(F)(F)F)n4)cc3C)on2)no1 [Compound 50, 1,5-bis-[5-[3-[2,6-dimethyl-4-(5-trifluoromethyl-1,2,4-oxadiazolyl)phenoxy]-propyl]-isoxazolyl-3-methyloxy]-3-oxapentane] |  | 10 µg/mL | 2 µg/mL | 0.06 µg/mL | Activity on Coxsackie A21 EC50 (Coxsackie A21): 0.35 µg/mL; Activity on Enterovirus 70 EC50 (Enterovirus 70; Enterovirus 70): >50 µg/mL; Activity on Echo 21 CC50 (mammalian cell culture [2]): 46.3 µg/mL; Activity on Echo 21 EC50 (Echo 21): 0.0006 µg/mL; Activity on Coxsackie A21 CC50 (mammalian cell culture [3]): > 50 µg/mL; Activity on Enterovirus 70 CC50 (mammalian cell culture [3]): > 50 µg/mL
3 |  | CC(=O)NCCOCCOCc1cc(CCCOc2c(C)cc(-c3ccccc3)cc2C)on1 [Compound 19] |  |  |  |  | EC50 (HRV type 2; KB): < 0.005 µg/mL; CC50 ([1]; MRC-5 cells, no virus, CC50 or, in some cases, MTC, read-out: Activity on Rhinovirus Type 1A CC50): 5.79 µg/mL (≈ 12.4 µM); CC50 [6]: 2 µg/mL (≈ 4.29 µM); EC50 (HRV type 1A; [10]): 0.87 µg/mL (≈ 1.86 µM)
4 | 0.001 µg/mL | Cc1cc(-c2ccccc2)cc(C)c1OCCCc1cc(COCCOCCOCCO)no1 [Compound 8] |  | 22.7 µg/mL | 5 µg/mL | 0.59 µg/mL | 
5 |  | CC(C)S(=O)(=O)n1c(N)nc2ccc(/C(=N/O)c3ccccc3)cc21 [Enviroxime] | 0.49 µg/mL (≈ 1.37 µM) |  |  |  | EC50 (Coxsackie A21): 0.39 µg/mL (≈ 1.09 µM); EC50 (Enterovirus 70; [11]): 0.21 µg/mL (≈ 0.586 µM); CC50 (in vitro): 0.45 µg/mL (≈ 1.26 µM); EC50 (Echo 21): 0.03 µg/mL (≈ 0.0837 µM); EC50 (HRV type 1A; [8]): 0.006 µg/mL (≈ 0.0167 µM)
6 | 0.09 µg/mL | Cc1cc(-c2noc(C(F)(F)F)n2)cc(C)c1OCCCc1cc(COCCOCCOCCOCCOCc2ccc(COCCOCCOCCOCCOCc3cc(CCCOc4c(C)cc(-c5noc(C(F)(F)F)n5)cc4C)on3)cc2)no1 [Compound 56] |  | 10 µg/mL | 2 µg/mL | 1.8 µg/mL | Activity on Coxsackie A21 EC50 (Coxsackie A21): 0.36 µg/mL; Activity on Enterovirus 70 EC50 (Enterovirus 70; Enterovirus 70): 2.88 µg/mL; Activity on Echo 21 CC50 (mammalian cell culture [2]): 7.93 µg/mL; Activity on Echo 21 EC50 (Echo 21): 0.0026 µg/mL; Activity on Coxsackie A21 CC50 (mammalian cell culture [3]): 11.1 µg/mL; Activity on Enterovirus 70 CC50 (mammalian cell culture [3]): > 50 µg/mL
7 | 0.6 µg/mL | Cc1cc(-c2ccccc2)cc(C)c1OCCCc1cc(COCCOCCOCCOCCNC(=O)Nc2ccc(Cc3ccc(NC(=O)NCCOCCOCCOCCOCc4cc(CCCOc5c(C)cc(-c6ccccc6)cc5C)on4)cc3)cc2)no1 [Compound 48] |  | 30.6 µg/mL | > 5 µg/mL | 3.85 µg/mL | 
8 | 0.1 µg/mL | Cc1cc(-c2ccccc2)cc(C)c1OCCCc1cc(COCCOCCOCCOCc2cc(CCCOc3c(C)cc(-c4ccccc4)cc3C)on2)no1 [Compound 32, 1,8-bis-[5-[3-[2,6-dimethyl-4-phenylphenoxy]-propyl]-isoxazolyl-3-methyloxy]-3,6-dioxaoctane] |  | > 50 µg/mL | > 5 µg/mL | 0.32 µg/mL | 
9 |  | Cc1cc(CCCOc2c(C)cc(-c3noc(C(F)(F)F)n3)cc2C)on1 [Pleconaril, reference compound] | 10 µg/mL (≈ 26.2 µM) |  |  |  | EC50 (Coxsackie A21): 0.0033 µg/mL (≈ 0.00865 µM); EC50 (HRV type 2; KB): 0.05 µg/mL (≈ 0.131 µM); EC50 (Enterovirus 70; Enterovirus D, read-out: Activity on Enterovirus 70 EC50): 0.28 µg/mL (≈ 0.734 µM); EC50 (Echo 21): > 0.00016 µg/mL; CC50 ([6]; KB cells, uninfected): 0.5 µg/mL (≈ 1.31 µM); EC50 (HRV type 1A; [10]): 0.02 µg/mL (≈ 0.0524 µM)
10 | 0.04 µg/mL | Cc1cc(-c2noc(C(F)(F)F)n2)cc(C)c1OCCCc1cc(COCCOCCOCCO)no1 [Compound 24] |  | 5.28 µg/mL | > 1 µg/mL | 0.21 µg/mL | 
11 |  | COCc1cc(CCCOc2c(C)cc(-c3ccccc3)cc2C)on1 [Compound 6, 3-(methoxymethyl)-5-[3-[2,6-dimethyl-4-phenylphenoxy]-propyl]-isoxazole] | > 50 µg/mL |  |  |  | EC50 (HRV type 2; [7]): < 0.005 µg/mL; CC50 ([6]; KB cells, uninfected): > 5 µg/mL; EC50 (HRV type 1A; [8]): 0.16 µg/mL (≈ 0.455 µM)
12 |  | NC(=O)c1ncn([C@@H]2O[C@H](CO)[C@@H](O)[C@H]2O)n1 [Ribavirin] | 98.3 µg/mL (≈ 403 µM) |  |  |  | EC50 (Coxsackie A21): > 100 µg/mL; EC50 (Enterovirus 70; [11]): > 100 µg/mL; EC50 (Echo 21): 3 µg/mL (≈ 12.3 µM)
13 | 0.1 µg/mL | Cc1cc(-c2ccccc2)cc(C)c1OCCCc1cc(COCCOCCOCCOCCOCCOCCO)no1 [Compound 10] |  | 19 µg/mL | 5 µg/mL | >50 µg/mL | 
14 | 0.09 µg/mL | Cc1cc(-c2ccccc2)cc(C)c1OCCCc1cc(COCCOCCOCCOCCOCCOCCOCc2cc(CCCOc3c(C)cc(-c4ccccc4)cc3C)on2)no1 [Compound 34] |  | 10.9 µg/mL | > 0.5 µg/mL | >50 µg/mL | 
